Tests used:
Hh pathway = details: Peukert and Miller-Moslin, ChemMedChem 2010; cited from earlier work
Gli1^het;RCE mice = test: GANT61 infusion into lateral ventricle during cuprizone demyelination/remyelination; GFP-labeled cells in Corpus Callosum by immunofluorescence; assay type: in vivo, mouse; details: n=3
Description: 10 week old mice were administered 5 mg Tamoxifen (Sigma) in corn oil on alternate days for total of 4 intraperitoneal (i.p.) injections. Gli1^het;RCE, mice, maintained on the Swiss-Webster background, were fed 0.4% cuprizone (Matsushima and Morell, 2001, Brain Pathol., 11:107-116; Elsworth & Howell, Research in Veterinary Science, 14:385-387, 1973). […] For the LPC model, 2 μl 1% LPC (Calbiochem) were stereotaxically injected into the CC at 1.5 mm anterior, 1.2 mm lateral and 2.2 mm ventral to bregma.
GANT61 (Enzo Life Sciences product #ALX-270-482) (5.6 mg/Kg per day; compound in 50% DMSO and 15% Ethanol in PEG400) or vehicle (50% DMSO+15% Ethanol in PEG400) were delivered via mini-osmotic pump (model 2004, Durect) at a rate of 0.25 μl/h for 4 weeks into the lateral ventricle of Gli^het;RCE mice at 0.5 mm Anterior, 0.75 mm lateral and 2.5 mm ventral to the bregma.
For Black-Gold (Millipore) staining, mice were perfused with 4% PFA and 20 μm coronal sections were stained according to manufacturer's protocol. For all other analysis, mice were perfused with Prefer (Anatech) and 20 μm coronal sections were stained with X-gal (Ahn & Joyner, Nature, 437:894-897, 2005) or processed for immunofluorescence with rabbit or chicken anti-GFP (1:1,000, Invitrogen) and one of the following antibodies: rat anti-PDGFRα (1:200, BD Biosciences); rabbit anti-NG2 (1:200, Millipore) and β4 spectrin (1:4,000 from M. Rasband); mouse anti-CC1 (1:400, Calbiochem), anti-GFAP (1:400, Sigma), anti-MOG (1:50, Sigma) and guinea pig anti-Caspr (1:3,000 from M. Bhat). Secondary antibodies were goat anti-species conjugated to Alexafluor-488, 594 or -680 (1:1,000, Molecular Probes). Nuclei were counterstained with Hoechst 33258 (1:5,000, Invitrogen). Fluorescent images were obtained as Z-stacks of 1 μm optical sections using a confocal laser-scanning microscope (LSM 510, Zeiss) and processed using Adobe Photoshop. At least 10 sections/mouse were analyzed and data from at least 3 mice were combined to determine the average and standard deviation. Student's t-test was performed to calculate P values.
To assess whether a strategy of inhibiting Gli1 could potentially be used therapeutically, GANT61, a small molecule inhibitor of Gli1 (Lauth et al., Proc. Natl. Acad. Sci. U.S.A., 104:8455-8460, 2007), was infused into the lateral ventricle of Gli1^het;RCE mice via a mini-osmotic pump. The infusion was started after 4 weeks of cuprizone diet and was continued for an additional 2 weeks on cuprizone and 2 weeks off cuprizone for a total of 4 weeks. Mice were then sacrificed and analyzed (FIG. 4a).

Compound | selectivity for the Hh pathway over TNF/NFkN signaling, glucocorticoid receptor gene transactivation, and the Ras-Raf-Mek-Mapk cascade (Hh pathway) | numbers of labeled cells in the CC (Gli1^het;RCE mice; 5.6 mg/Kg per day via mini-osmotic pump for 4 weeks (2 weeks on, 2 weeks off cuprizone), mean±SD, vehicle 6.4±5) | proportion of differentiated oligodendrocytes among GFP-labeled cells (Gli1^het;RCE mice; 5.6 mg/Kg per day via mini-osmotic pump for 4 weeks, mean±SD, vehicle 21.4±18.7%) | increase in GFP-labeled cells in the CC (Gli1^het;RCE mice; FIG. 4C, versus control infusion) | percentage of mature oligodendrocytes (Gli1^het;RCE mice; FIG. 4D, versus control infusion, Student's T test)
CN(C)c1ccccc1CN1CCCN(Cc2ccccc2N(C)C)C1c1ccncc1 [GANT61] | display selectivity for the Hh pathway | 43.8±22.1 per section | 65.4±7.5% | ~7 fold | significant increase
c1cc(-c2sc(-c3ccncc3)c(-c3ccncc3)c2-c2ccncc2)ccn1 [GANT58] | display selectivity for the Hh pathway |  |  |  | 

Source: patent publication US9248128B2, “Method for enhancing remyelination using GLI1 inhibitors” (NEW YORK UNIVERSITY, priority 2012, dated 2016)
